# Tests used:
# [1] = test system: PC3 cells; assay: Cell survival, crystal violet staining, PC3; type: cell-based; conditions: 48 hrs
# Description: FIGS. 8A and 8B. Effect of SID 14730725 and SID 3712502 on survival of PC3 (FIG. 8A) and C4-2 cells (FIG. 8B). PC3 or C4-2 cells were plated in 12-well plates at 2,500 cell per well in RPMI 1640 complete medium. After 24 hrs, the cells were treated with SID 14730725 or SID 3712502 at the indicated concentrations for 48 hrs. The wells were washed with PBS thrice and fixed in 0.5% crystal Violet in methanol. C=control; treated with vehicle DMSO.
# [2] = test system: LNCaP cells; assay: BrdU incorporation, LNCaP; type: cell-based; conditions: 48 hrs
# Description: (§1) FIGS. 14A-F. Effect of SID 3712502 at indicated concentrations on BrdU incorporation in cultured AR-positive LNCaP (FIG. 14A), C4-2 (FIG. 14B), 22Rv1 (FIG. 14C), LAPC4 (FIG. 14D) cells, and AR-negative DU145 (FIG. 14E) and PC3 (FIG. 14F) cells. Cells were plated in 12-well plates at 2,500 cell per well in RPMI 1640 complete medium. After 24 hrs, the cells were treated with SID 3712502 at the indicated concentrations for 48 hrs and BrdU incorporation was assayed according to manufacturer's instructions (Invitrogen BrdU staining kit; catalog #: 93-3943). The percentage of BrdU-positive cells was determined and then normalized to generate relative BrdU index. Ctrl=DMSO control.
# [3] = molecular target: T1, GFP-ER (Homo sapiens, UniProt P03372); assay: GFP-ER nuclear localization in transfected C4-2 cells; type: cell-based; conditions: 24 hours
# T1 construct: expressed in transfected cells; host or cells: C4-2
# Description: (§2) FIG. 7. The effect of SID 14730725 and SID 3712502 on nuclear localization of GFP-ER (Top panel) and GFP-GR (Bottom panel) in C4-2 cells. C4-2 cells were transfected with GFP-ER or GFP-GR overnight. The following day the cells were treated with different concentrations (uM) of the small molecules. The cells transfected with GFP-GR were co-treated with 0.5 μM Dexamethasone. Cells were imaged 24 hours after the treatment with the small molecules.
# [4] = test system: LAPC4 cells; assay: BrdU incorporation, LAPC4; type: cell-based; conditions: LAPC4, 48 hrs
# Description: as §1
# [5] = molecular target: T2, GFP-GR (Homo sapiens, UniProt P04150); assay: GFP-GR nuclear localization in transfected C4-2 cells; type: cell-based; conditions: co-treated with 0.5 μM Dexamethasone, 24 hours
# T2 construct: expressed in transfected cells; host or cells: C4-2
# Description: as §2
# [6] = test system: castration resistant 22Rv1 xenograft tumors; assay: 22Rv1 xenograft tumors in castrated SCID mice; type: in vivo; conditions: i.p. 25 mg/kg every other day
# Description: FIGS. 15A-B. SID 3712502 inhibited the growth of castration resistant 22Rv1 xenograft tumors (FIG. 15A), but not PC3 tumors (FIG. 15B). 22Rv1 or PC3 tumors were established by s.c. injection of 1×10^6 cells into young adult male SCID mice. SCID mice were castrated and randomized when tumor volume reached ˜400 uL. Mice received i.p. delivery of SID 3712502 (25 mg/kg body weight) or vehicle control EPL every other day, beginning 4 days after castration (injection indicated by arrows). Each group consisted of 10 mice for 22Rv1, and 8 mice for PC3 tumors. Tumor volumes were measured using micro-calipers and calculated using the formula (length×width^2)/2. Black and red lines represent data from the animals treated with vehicle (C) and SID 3712502 (SID), respectively. P value was calculated using a two-way ANOVA with the Bonferrroni correction (GraphPad). Error bars=SEM. **p<0.01.
# T1 sequence (P03372 whole entry): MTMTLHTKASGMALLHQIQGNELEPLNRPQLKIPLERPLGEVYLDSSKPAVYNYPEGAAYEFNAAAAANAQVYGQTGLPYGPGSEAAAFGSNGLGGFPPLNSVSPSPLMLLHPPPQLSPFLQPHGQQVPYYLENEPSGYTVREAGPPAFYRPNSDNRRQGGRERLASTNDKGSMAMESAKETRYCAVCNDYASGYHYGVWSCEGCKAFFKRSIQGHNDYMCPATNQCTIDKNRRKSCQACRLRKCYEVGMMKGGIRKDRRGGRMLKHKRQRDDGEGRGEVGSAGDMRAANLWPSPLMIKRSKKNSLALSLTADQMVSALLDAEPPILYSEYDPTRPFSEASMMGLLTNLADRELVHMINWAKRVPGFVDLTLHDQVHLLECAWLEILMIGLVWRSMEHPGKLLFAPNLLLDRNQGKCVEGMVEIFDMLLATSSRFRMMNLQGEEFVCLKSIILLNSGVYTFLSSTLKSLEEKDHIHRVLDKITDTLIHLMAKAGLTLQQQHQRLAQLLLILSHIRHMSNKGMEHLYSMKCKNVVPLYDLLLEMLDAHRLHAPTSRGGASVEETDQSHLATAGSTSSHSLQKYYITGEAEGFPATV
# T2 sequence (P04150 whole entry): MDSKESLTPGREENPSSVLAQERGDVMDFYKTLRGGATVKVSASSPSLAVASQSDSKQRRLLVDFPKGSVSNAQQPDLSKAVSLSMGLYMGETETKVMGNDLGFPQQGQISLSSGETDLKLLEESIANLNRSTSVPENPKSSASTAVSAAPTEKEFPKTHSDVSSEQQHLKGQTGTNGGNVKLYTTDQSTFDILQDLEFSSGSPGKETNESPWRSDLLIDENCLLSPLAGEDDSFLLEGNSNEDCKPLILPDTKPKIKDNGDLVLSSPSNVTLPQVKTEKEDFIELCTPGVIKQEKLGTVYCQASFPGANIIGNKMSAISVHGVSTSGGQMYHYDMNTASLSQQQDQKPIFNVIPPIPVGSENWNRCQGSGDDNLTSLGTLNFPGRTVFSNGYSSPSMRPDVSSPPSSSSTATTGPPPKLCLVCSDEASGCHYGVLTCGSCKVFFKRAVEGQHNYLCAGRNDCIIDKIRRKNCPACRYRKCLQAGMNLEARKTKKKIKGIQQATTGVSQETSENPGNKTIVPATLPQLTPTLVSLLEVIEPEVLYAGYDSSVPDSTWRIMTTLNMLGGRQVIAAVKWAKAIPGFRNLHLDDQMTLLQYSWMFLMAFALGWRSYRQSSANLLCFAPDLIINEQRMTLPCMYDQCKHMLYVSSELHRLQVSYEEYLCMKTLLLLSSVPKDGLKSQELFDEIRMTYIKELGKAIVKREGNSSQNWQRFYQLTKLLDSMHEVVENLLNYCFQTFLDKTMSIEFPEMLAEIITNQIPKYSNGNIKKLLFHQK
smiles,measurement,setting,value
"Cc1cccc(N2CCN(C(=O)CSCc3c(C)noc3C)CC2)c1C [SID 3712502, 2-[(3,5-dimethyl-1,2-oxazol-4-yl)methylsulfanyl]-1-[4-(2,3-dimethylphenyl)piperazin-1-yl]ethanone]",cytotoxicity,[1],little or no cytotoxicity
same,proliferation (BrdU incorporation),[2],inhibited the proliferation
same,localization of GFP-ER,[3],no effect
same,proliferation (BrdU incorporation),[4],inhibited the proliferation
same,localization of GFP-GR,[5],no effect
same,growth of 22Rv1 xenograft tumor,[6],significantly inhibited the growth
